Patent publication US20070196510A1, “Method for treating resistant hypertension” (priority 2006, published 2007)
Values joined by “and” are separate entries in the source; they are usually repeats but may differ in a detail not shown here. Identical values can stand only once. “Also recorded” adds a separate entry of the source.

Columns and labels:
[1] = system: patients with resistant hypertension; experiment: Randomized, double-blind, placebo-controlled dose-titration study: sitting blood pressure by standard sphygmomanometry; type: in vivo, human; conditions: for patients achieving SBP goal, % / patients achieving SBP goal, responders n: n = 76; for placebo-corrected change from baseline in trough sitting SBP: post-hoc
Method: In this randomized, double-blind, placebo-controlled, dose-titration study, 115 patients with resistant hypertension as defined by JNC 7 guidelines were randomized 2:1 to receive escalating doses of darusentan (10, 50, 100, 150 and 300 mg) or placebo once daily for 10 weeks. Darusentan dose was increased every 2 weeks.
Patients (35 to 85 years of age) with resistant hypertension as defined by the JNC 7 guidelines and who were treated with and adhered to full doses of JNC 7 recommended antihypertensives, including a diuretic and two or more antihypertensive medications from different drug classes, defined as (a) ACE inhibitors and angiotensin II receptor blockers, (b) beta-adrenergic receptor blockers, and (c) calcium channel blockers, were eligible to participate in the study. Patients also were required to have an estimated glomerular filtration rate (GFR)≧30 mL/min/1.73 m^2 during the screening period. Women of childbearing potential were required to have a negative serum pregnancy test at the screening visit and a negative urine pregnancy test at baseline, and they must have agreed to use a reliable double-barrier method of contraception throughout the study and for at least 4 weeks after the last study visit. Patients with an average sitting SBP≧180 mmHg, DBP≧110 mmHg, hemoglobin A1c>10%, hemoglobin concentration<10 g/dL, hematocrit<30%, serum thyroid stimulating hormone concentration>1.5× the upper limit of normal (ULN), or serum alanine aminotransferase (ALT) or aspartate aminotransferase (AST)>2×ULN during the screening period were excluded from the study. […] All patients provided written informed consent.
In this randomized, double-blind, placebo-controlled, dose-titration study, patients were randomized 2:1 to receive escalating doses of darusentan or placebo once daily in the morning for 10 weeks after completing a 2-week placebo run-in period (FIG. 1). Darusentan was initiated at a dose of 10 mg/day and escalated every 2 weeks at doses of 50, 100 and 150 mg/day until reaching a maximum of 300 mg/day. […] Patients were withdrawn from the study if a subsequent dose reduction was required. After completion of the 10-week treatment period, patients were withdrawn from study medication over a maximum of 2 weeks. This study was approved by an Institutional Review Board/Independent Ethics Committee and conducted in accordance with the principles of Good Clinical Practices and the revised Declaration of Helsinki.
(§1) Co-primary efficacy endpoints were the changes from baseline through weeks 8 and 10 (i.e., doses of 150 and 300 mg) in trough sitting SBP. Blood pressure was measured at every study visit (baseline and weeks 2, 4, 6, 8 and 10) using standard sphygmomanometry. Secondary variables included 24-hour SBP as measured by ambulatory blood pressure monitoring (ABPM), percentage of patients who achieved SBP goal, trough sitting DBP, and urinary albumin to creatinine ratio. Ambulatory blood pressure monitoring was recorded once before randomization and repeated during the 24 hours immediately preceding the week 10 study visit. Urine samples for determination of albumin to creatinine ratio were collected at screening, baseline and week 10.
A nonlinear mixed effect model was used for the analysis of change in blood pressure, with comorbidity status as a covariate. This model used all observed blood pressure measurements with no imputation for missing values. Linear contrast statements were used to test the slope through a given time point to test the effect of the dose administered on that week. Estimates of treatment effect were obtained via least square means. Response rates were compared with logistic regression models at each blood pressure measurement with comorbidity status as a covariate; missing values were imputed with last observation carried forward for these models. Safety summaries include all patients who received ≧1 dose of blinded study medication. […]

[2] = system: patients with resistant hypertension; experiment: Same clinical study: 24-hour ambulatory blood pressure monitoring (ABPM); type: in vivo, human
Method: as §1
(§2) A nonlinear mixed effect model was used for the analysis of change in blood pressure, with comorbidity status as a covariate. This model used all observed blood pressure measurements with no imputation for missing values. Linear contrast statements were used to test the slope through a given time point to test the effect of the dose administered on that week. Estimates of treatment effect were obtained via least square means. Response rates were compared with logistic regression models at each blood pressure measurement with comorbidity status as a covariate; missing values were imputed with last observation carried forward for these models. Safety summaries include all patients who received ≧1 dose of blinded study medication.
In this randomized, double-blind, multi-center study, subjects underwent a 2-week placebo run-in, followed by 2:1 randomization to darusentan or placebo once daily for 10 weeks. Subjects were initiated on 10 mg of study drug and underwent dose-escalation every 2 weeks through doses of 50, 100 and 150 mg until a maximum dose of 300 mg was achieved. Change from baseline to week 10 in 24-hour ambulatory blood pressure (ABP) was a secondary efficacy endpoint. All available ABP data were included in the analyses (observed population).

[3] = system: patients with resistant hypertension; experiment: Same clinical study: safety and tolerability assessments; type: in vivo, human
Method: Physical examinations, vital sign measurements, clinical chemistry and hematologic laboratory tests, and electrocardiography were performed at the screening visit and periodically throughout the study. Blood samples were obtained at baseline and at weeks 4 and 10 during study drug treatment to monitor liver function. Additional blood samples were drawn from male patients at baseline and week 10 to assess follicle stimulating hormone, inhibin B, luteinizing hormone and testosterone levels. Male fertility was assessed by analysis of semen samples obtained within 2 weeks before baseline and within 2 weeks before week 10. Adverse events were monitored throughout the study.
as §2

[4] = system: patients with resistant hypertension; experiment: Same clinical study: urinary albumin to creatinine ratio; type: in vivo, human
Method: as §1

[5] = system: patients with moderate hypertension; conditions: 10 to 100 mg/day, no other antihypertensive drugs; cited from earlier work

Structure (SMILES): COc1cc(OC)nc(O[C@H](C(=O)O)C(OC)(c2ccccc2)c2ccccc2)n1 [Darusentan, (+)-(S)-2-[(4,6-dimethoxy-2-pyrimidinyl)oxy]-3-methoxy-3,3-diphenylpropionic acid]
- sitting and standing blood pressure during withdrawal ([1]; 2-week withdrawal period after week 10, no significant difference vs placebo): increased
- dose dependence of improvements in trough sitting SBP and DBP ([1]; 10 to 300 mg once daily, escalated every 2 weeks): dose dependent
- reduction in peak sitting DBP ([1]; by week 10): 8.2 mmHg
- reduction in peak sitting SBP ([1]; by week 10, placebo 9.9): 17.1 mmHg
- average trough sitting DBP at end of treatment ([1]; study end (week 10), baseline 80.6): 73.9 mmHg
- average trough sitting SBP at end of treatment ([1]; study end (week 10), baseline 146.3): 132.6 mmHg
- patients achieving SBP goal, % ([1]; week 2 (10 mg)): 30.3%
- patients achieving SBP goal, responders n ([1]; week 2 (10 mg)): 23
- placebo-adjusted mean trough sitting DBP, change from baseline ([1]; week 4 (50 mg dose)): −4.9 mmHg
- patients achieving SBP goal, % ([1]; week 4 (50 mg)): 47.4%
- patients achieving SBP goal, responders n ([1]; week 4 (50 mg)): 36
- patients achieving SBP goal, % ([1]; week 6 (100 mg)): 44.7%
- patients achieving SBP goal, responders n ([1]; week 6 (100 mg)): 34
- change from baseline in mean trough sitting SBP, difference between groups ([1]; week 8 (150 mg dose), vs placebo): not statistically significant
- patients achieving SBP goal, % ([1]; week 8 (150 mg)): 42.1%
- patients achieving SBP goal, responders n ([1]; week 8 (150 mg)): 32
- placebo-adjusted mean trough sitting DBP, change from baseline ([1]; week 10 (300 mg dose), add-on therapy): −5.8 mmHg and −5.8±2.3 mmHg
- placebo-adjusted mean trough sitting SBP, change from baseline ([1]; week 10 (300 mg dose), oral once daily, add-on to >=3 full-dose antihypertensives incl. diuretic): −11.6 mmHg and −11.6±3.3 mmHg
- patients achieving SBP goal, % ([1]; week 10 (300 mg), JNC 7 goal): 49% and 48.7%
- patients achieving SBP goal, responders n ([1]; week 10 (300 mg)): 37
- placebo-corrected change from baseline in trough sitting SBP ([1]; week 10 (300 mg), subjects on >=4 antihypertensive drugs): −12.71 mmHg
- placebo-corrected change from baseline in trough sitting SBP ([1]; week 10 (300 mg), subjects on exactly 3 antihypertensive drugs): −9.39 mmHg
- subjects with decrease in SBP of at least 20 mmHg ([1]; week 10, post-hoc, placebo 26%): about 46%
- subjects with change from baseline of at least 10 mmHg for SBP ([1]; week 10, post-hoc, placebo 46%): approximately 64%
- subjects achieving SBP goal or a decrease in SBP of at least 10 mmHg ([1]; week 10, post-hoc, placebo 49%): 71%
- subjects achieving SBP goal or a decrease in SBP of at least 10 mmHg ([1]; week 10, subjects on >=4 antihypertensive drugs, placebo 38%): 66%
- subjects achieving SBP goal or a decrease in SBP of at least 10 mmHg ([1]; week 10, subjects on exactly 3 antihypertensive drugs, placebo 57%): 76%
- placebo-adjusted reduction in mean 24-hour diastolic ABP ([2]; 300 mg, week 10): 7.2±1.6 mmHg
- placebo-adjusted 24-hour ambulatory DBP, change from baseline ([2]; ABPM at week 10): −7.2 mmHg and −7.2±1.6 mmHg
- placebo-adjusted 24-hour ambulatory SBP, change from baseline ([2]; ABPM at week 10): −9.2 mmHg and −9.2±2.2 mmHg
- blood pressure reduction over the 24-hour monitoring period ([2]; ABPM week 10, once daily dosing): maintained throughout the 24-hour monitoring period; also recorded: maintained over 24 hours; also recorded: remained consistently lower throughout the dosing interval
- improvement in placebo-adjusted diurnal SBP ([2]; after 10 weeks, post-hoc analysis): 8.7 mmHg
- placebo-adjusted change from baseline in mean ABPM-determined nocturnal DBP ([2]; week 10): −5.9 mm Hg
- placebo-adjusted change from baseline in mean ABPM-determined nocturnal SBP ([2]; week 10): −9.9 mm Hg
- decrease in day-time SBP ([2]; week 10, placebo 2.2±2.4): 10.9±1.4 mmHg
- improvement in peak DBP as recorded by ABPM ([2]; week 10, placebo 2.3): 9.2 mmHg
- decrease in night-time SBP ([2]; week 10, placebo 3.8±2.7): 11.9±1.6 mmHg
- improvement in peak SBP as recorded by ABPM ([2]; week 10, placebo 6.0): 14.1 mmHg
- Day/night SBP ratio ([2]; week 10, placebo 6.8%): 9.5%
- overall tolerability ([3]; 10 to 300 mg once daily for 10 weeks, add-on therapy): generally safe and well tolerated
- decreases in hematocrit reported as adverse events ([3]; all events mild): 2 patients
- decreases in hemoglobin reported as adverse events ([3]; all events mild): 2 patients
- mean concentrations of ALT, AST, and γ-glutamyltransferase ([3]; both groups): decreased slightly from baseline
- number of serious adverse events reported ([3]; darusentan group, n = 76): Five
- patients reporting serious adverse events ([3]; darusentan group, n = 76): 4 patients
- patients who discontinued the study because of an adverse event ([3]; darusentan group, n = 76): 4 patients
- cases of severe edema reported ([3]; human, in vivo): one
- deaths during the course of the study ([3]; human, in vivo): No patients died
- effects on heart rate or liver enzyme levels ([3]; human, in vivo): no clinically relevant effects
- intensity of peripheral edema ([3]; human, in vivo): largely mild to moderate
- patients able to successfully escalate study medication dose to 300 mg/day ([3]; human, in vivo): 78%
- patients with elevations in ALT or AST >2×ULN ([3]; human, in vivo): no patients; also recorded: no drug-related serious adverse events or elevations in serum aminotransferase concentrations>2×ULN
- relation of serious adverse events to study medication ([3]; human, in vivo): None of these events were considered to be related to study medication; also recorded: no drug-related serious adverse events
- Treatment-emergent adverse event: Arthralgia, patients % ([3]; n = 76): 3%
- Treatment-emergent adverse event: Arthralgia, patients n ([3]; n = 76): 2
- Treatment-emergent adverse event: Arthritis, patients n ([3]; n = 76): 0
- Treatment-emergent adverse event: Diarrhea, patients % ([3]; n = 76): 1 (1) %
- Treatment-emergent adverse event: Diarrhea, patients n ([3]; n = 76): 1 (1)
- Treatment-emergent adverse event: Dizziness, patients % ([3]; n = 76): 7%
- Treatment-emergent adverse event: Dizziness, patients n ([3]; n = 76): 5
- Treatment-emergent adverse event: Gastroenteritis, patients % ([3]; n = 76): 5%
- Treatment-emergent adverse event: Gastroenteritis, patients n ([3]; n = 76): 4
- Treatment-emergent adverse event: Headache, patients % ([3]; n = 76): 11%
- Treatment-emergent adverse event: Headache, patients n ([3]; n = 76): 8
- Treatment-emergent adverse event: Nasopharyngitis, patients % ([3]; n = 76): 7%
- Treatment-emergent adverse event: Nasopharyngitis, patients n ([3]; n = 76): 5
- Treatment-emergent adverse event: Peripheral edema, patients % ([3]; n = 76): 17%
- Treatment-emergent adverse event: Peripheral edema, patients n ([3]; n = 76): 13
- Treatment-emergent adverse event: Sinusitis, patients % ([3]; n = 76): 8%
- Treatment-emergent adverse event: Sinusitis, patients n ([3]; n = 76): 6
- Treatment-emergent adverse event: Upper respiratory tract infection, patients % ([3]; n = 76): 5%
- Treatment-emergent adverse event: Upper respiratory tract infection, patients n ([3]; n = 76): 4
- liver function test results ([3]; vs placebo): comparable between treatment groups
- heart rate, change from baseline ([3]; week 10, placebo 2.3±1.3): 0.4±0.9 beats per minute
- geometric mean albumin to creatinine ratio at week 10 ([4]; all observed patients, n 65, baseline 12.6): 9.4 mg/g
- decrease from baseline in geometric mean urinary albumin to creatinine ratio ([4]; all observed patients, placebo increased 6.2%): 25.3%
- geometric mean albumin to creatinine ratio at week 10 ([4]; baseline ratio >30 mg/g, n 12, baseline 145.4): 73.6 mg/g
- geometric mean albumin to creatinine ratio at week 10 ([4]; baseline ratio ≦30 mg/g, n 53, baseline 7.2): 5.9 mg/g
- albumin to creatinine ratio, % change from baseline, mean (SE) ([4]; week 10, all observed patients, n 65): −25.3 (8.9) %
- albumin to creatinine ratio, % change from baseline, mean (SE) ([4]; week 10, baseline ratio >30 mg/g, n 12): −49.4 (23.6) %
- albumin to creatinine ratio, % change from baseline, mean (SE) ([4]; week 10, baseline ratio ≦30 mg/g, n 53): −18.4 (8.3) %
- effect on SBP and DBP by comparison with placebo [5]: significantly reduce SBP and DBP
